We go through 63 molecules from patent US10940139B2, “Compounds that interact with the Ras superfamily for the treatment of cancers, inflammatory diseases, rasopathies, and fibrotic disease” (Shy Therapeutics LLC, priority 2017, dated 2021).

pIC50: −log10 of the molar value.

Chain of KRas G12D/Q61H double mutant (P01116-2 other isoform, or with tags, fused parts or gaps G12D/Q61H): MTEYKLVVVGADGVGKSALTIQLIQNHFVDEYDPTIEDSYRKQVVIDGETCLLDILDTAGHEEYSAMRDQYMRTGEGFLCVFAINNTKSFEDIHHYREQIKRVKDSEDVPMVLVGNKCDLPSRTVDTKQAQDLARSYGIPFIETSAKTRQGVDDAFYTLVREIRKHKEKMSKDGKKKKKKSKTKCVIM

One experiment concerns the target KRas G12D/Q61H double mutant (Homo sapiens (Human), UniProt P01116, G12D/Q61H). Nature of the experiment: Ras GTP binding domain inhibition assay (labeled GTP). As to conditions: 20 μM compound; KRas G12D/Q61H double mutant; read-out: % Inhibition at 20 μM of K-Ras mutant and wild-type protein, KRas G12D Q61H. Summed up: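 Fluorescence read-out of Cy3-/Cy5-GTP remaining bound to nickel-immobilized His-KRas after washes. Protein was coated overnight at 4° C, then exposed to compound for 3 h at room temperature before a 45 min labeled-GTP incubation.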
As for `COC(C)c1nc(CN(Cc2ccc(C#N)cc2)Cc2cccc(F)c2)cs1` (stereo not shown), the inhibition at 20 µM was 25 to 50%. On the same count and under the same terms, the value for `COc1ccc(C)cc1-n1ccc(C(=O)N2CCCC2C(O)C(F)(F)F)n1` (stereo not shown) was 1 to 25%; that for `Cc1ccc(Sc2ccc(S(=O)(=O)NC3CCCC3)cc2)cc1C` was 1 to 25%. On the same count and under the same terms, then `Cc1ccc(CC(C#N)c2c(C#N)c(N)nc(N3CCCCC3)c2C#N)cc1` (stereo not shown), with 1 to 25%; and `O=C(C1CCN(c2ccccc2[N+](=O)[O-])CC1)N1CCCC1C1CCCCC1` (stereo not shown), with 1 to 25%. Same read-out and setting: then `Cc1ccc(OCCn2c(CN3CCCCC3)nc3ccccc32)cc1C`, with 25 to 50%.

Turning to `CCOc1cc(CN(C(=O)CCc2nc(-c3ccsc3)no2)C2CC2)ccc1OC(F)(F)F`, the inhibition at 20 µM fell in the range of 25 to 50%. Same read-out and setting: the value for `COc1ccc(-c2nc(CSc3nnc(CC(C)c4ccccc4)o3)cs2)cc1OC` (stereo not shown) was 25 to 50%; that for `CCOc1ccc(Oc2ccc(C(F)(F)F)cc2NCc2nc(C)no2)cc1` was 51 to 75%; that for `CCOC(=O)c1c(-c2ccc(OC)cc2)oc2ccc(OCC=C(C)C)cc12` was 25 to 50%. Still for that read-out and setting: then `COc1ccc(N(CC(=O)N(c2ccccc2)C(C)C)S(=O)(=O)c2ccccc2C(F)(F)F)cc1`, with 25 to 50%. Turning to `Cc1occc1-c1nnc(SCC2CCN(C(=O)OCc3ccccc3)CC2)o1`, the inhibition at 20 µM is 25 to 50%. With `Cc1ccc2c(c1)C1CN(C)CCC1N2Sc1ccc(Cl)cc1` (stereo not shown), the inhibition at 20 µM fell in the range of 25 to 50%. For `CC(=O)c1cc(C(=O)Nc2cccc(COC3CCCCC3)c2)n(C)c1`, the inhibition at 20 µM was in the range of 25 to 50%.

Take `Cc1ccc(OCc2ccc(C(=O)N(CCC#N)CC3CCC3)o2)c(C)c1`: the inhibition at 20 µM lay in the range of 51 to 75%. On the same count and under the same terms, then `COc1ccc(CCNc2nc(-c3cc(C)n(-c4ncn[nH]4)c3C)cs2)cc1OC`, with 25 to 50%; and `CCc1ccc(C(=O)c2cc3ccccc3o2)s1`, with 25 to 50%; and `C=CCn1c(C)cc(C(=O)CSc2nc3ccccc3c(=O)n2C(C)COC)c1C` (stereo not shown), with 25 to 50%. Same read-out and setting: then `COc1ccc(CCN/C(=N/C(=O)Nc2ccccc2)Nc2nc(C)cc(C)n2)cc1OC`, with 25 to 50%. On the same count and under the same terms, the value for `O=C(CCCOc1ccc(Cl)cc1Cl)N1N=CCC1(O)C(F)(F)F` (stereo not shown) was 25 to 50%.

The same experiment, now with this note: 20 μM compound; read-out: % Inhibition at 20 μM KRas G12D Q61H.
Take `CC(C)Cc1cc(C(=O)Nc2cc(-c3ccncc3)nn2C)[nH]n1`: the inhibition at 20 µM was in the range of 1 to 25%.

Regarding `CCN(CCNC(=O)c1cc(-c2cccnc2)on1)c1cccc(C)c1`, the inhibition at 20 µM was 25 to 50%. As to `COc1ccc(OCCn2c(CN3CCCCC3)nc3ccccc32)cc1`, the inhibition at 20 µM lay in the range of 1 to 25%.

Take `CC(c1nc(N)nc(N(C)C)n1)N1CCN(c2cccc(C(F)(F)F)c2)CC1` (stereo not shown): the inhibition at 20 µM is 1 to 25%. Consider `Cc1noc(CN2CCOC(c3nc(-c4ccccc4)cs3)C2)n1` (stereo not shown), for which the inhibition at 20 µM lay in the range of 1 to 25%. The same measure, in the same setting: then `O=S(=O)(c1ccccc1)N(CCOc1cccc(Cl)c1)c1nccs1`, with 25 to 50%. Turning to `Cc1ccccc1CC(=O)N(CC(F)(F)F)C1CCCOC1` (stereo not shown), the inhibition at 20 µM is 1 to 25%. The same measure, in the same setting: the value for `Cc1cc(C2CCCN2c2cc(C(F)(F)F)nc3ncnn23)no1` (stereo not shown) was 1 to 25%; that for `Cc1cccc(C)c1Oc1ccccc1NCc1nnc(C2CC2)o1` was 25 to 50%; that for `O=c1[nH]c(-c2ncccn2)nc2ccc(-c3cccc(C(F)(F)F)c3)cc12` was 25 to 50%. Same read-out and setting: the value for `N#Cc1ccccc1S(=O)(=O)NC(c1ccccc1)c1ccccn1` (stereo not shown) was 1 to 25%. The same measure, in the same setting: then `COc1ccccc1CN(Cc1cccs1)C(=O)c1ccc(-c2nnn[nH]2)cc1`, with 1 to 25%.

For `COC(=O)c1ccc(C(=O)N2Cc3ccccc3C(c3ccccc3)C2)nc1` (stereo not shown), the inhibition at 20 µM was 1 to 25%.

As to `COc1ccc(NC(=O)CN(C)Cc2coc(-c3cccs3)n2)cc1`, the inhibition at 20 µM was in the range of 25 to 50%. Turning to `O=C(c1csc2c(O)nc(-c3ccccn3)nc12)N1CCN(c2cccc(O)c2)CC1`, the inhibition at 20 µM fell in the range of 25 to 50%. Same read-out and setting: then `CCN(CC)S(=O)(=O)c1ccc(N2CCOCC2)c(C(=O)NCCCn2cnc3ccccc32)c1`, with 1 to 25%; and `Cc1ccc(NC(=O)c2sc3nc(-c4ncccn4)[nH]c(=O)c3c2C)c(C)c1`, with 1 to 25%; and `O=C(Nc1nnc(-c2ccccn2)[nH]1)c1ccc(N2CCCCC2=O)cc1`, with 25 to 50%. The same measure, in the same setting: the value for `Cc1cccc2c(=O)[nH]c(-c3ccccn3)nc12` was 25 to 50%. Still for that read-out and setting: the value for `Cc1nc(-c2ccc(F)cc2)sc1C(=O)NCCN(C)c1ccccc1` was 25 to 50%.

Turning to `CC(C1CC1)N(CC(F)(F)F)C(=O)Cc1ccc(Cl)cc1Cl` (stereo not shown), the inhibition at 20 µM lay in the range of 25 to 50%. Still for that read-out and setting: the value for `CN(C)C1CN(C(=O)Nc2nc(-c3cccnc3)cs2)C1` was 1 to 25%; that for `COc1ccccc1CC(=O)N(CC(F)(F)F)C1CCCOC1` (stereo not shown) was 1 to 25%; that for `COc1ccccc1OCc1ccc(C(=O)N2CCc3ccccc32)o1` was 25 to 50%. Regarding `COc1ccccc1CN(Cc1cccs1)C(=O)c1ccc(S(=O)(=O)N2CCOCC2)cc1`, the inhibition at 20 µM lay within 1 to 25%. Same read-out and setting: the value for `Nc1nc(O)c2scc(C(=O)N3CCC(N4CCOCC4)CC3)c2n1` [drawing 2662] was 1 to 25%; that for `COc1ccc(N2CCN(C(=O)c3csc4c(O)nc(-c5ccccn5)nc34)CC2)cc1` was 25 to 50%.

The same experiment, now with this note: 20 μM; read-out: KRas G12D Q61H % Inh.
As to `O=C(CC1C=CCC1)Nc1nnc(-c2ccccn2)[nH]1` (stereo not shown) [drawing 2484], the inhibition at 20 µM was 51 to 75%. In the case of `COc1ccccc1C1CC1C(=O)Nc1nnc(-c2ccccn2)[nH]1` (stereo not shown) [drawing 2535], the inhibition at 20 µM was in the range of 51 to 75%. The same measure, in the same setting: the value for `COc1ccc(CCC(=O)Nc2nnc(-c3ccccn3)[nH]2)cc1F` [drawing 2454] was 51 to 75%. On the same count and under the same terms, the value for `COc1ccc(-c2csc3[nH]c(-c4ccccn4)nc(=O)c23)cc1` [drawing 2582] was 51 to 75%.

Consider `COc1ccc(COCC(=O)N2CCCc3c(O)nc(-c4ccccn4)nc32)cc1` [drawing 2639], for which the inhibition at 20 µM is 76 to 100%. On the same count and under the same terms, then `Cc1ccc(CN(Cc2ccco2)C(=O)c2oc3ccccc3c2C)cc1` [drawing 2614], with 51 to 75%. The same measure, in the same setting: the value for `CN(CC(=O)Nc1nnc(-c2ccccn2)[nH]1)S(=O)(=O)c1ccccc1` [drawing 2558] was 76 to 100%. Consider `CCN(CC)S(=O)(=O)c1cc(C)c(C)c(NC(=O)CCc2c(C)nc(-c3ccccn3)nc2O)c1` [drawing 2602], for which the inhibition at 20 µM lay in the range of 51 to 75%.

In the case of `COc1ccc(CC(=O)Nc2nnc(-c3ccccn3)[nH]2)cc1` [drawing 2485], the inhibition at 20 µM was in the range of 51 to 75%. Same read-out and setting: the value for `Cc1ccc(CC(=O)Nc2nnc(-c3ccccn3)[nH]2)cc1` [drawing 2473] was 51 to 75%.

Turning to `COC(=O)c1cncc(C(=O)Nc2nnc(-c3ccccn3)[nH]2)c1` [drawing 2529], the inhibition at 20 µM was 51 to 75%.

On to `O=C(Nc1nnc(-c2ccccn2)[nH]1)c1cccc(N2CCCS2(=O)=O)c1` [drawing 2540], for which the inhibition at 20 µM lay within 51 to 75%.

In the case of `CC(C)c1nc(CC(=O)Nc2nnc(-c3ccccn3)[nH]2)cs1` [drawing 2480], the inhibition at 20 µM fell in the range of 51 to 75%. As to `COc1cn(-c2ccccc2)nc1C(=O)Nc1nnc(-c2ccccn2)[nH]1` [drawing 2557], the inhibition at 20 µM lay in the range of 76 to 100%. Still for that read-out and setting: then `Cc1c(C(=O)N(C)C)sc2[nH]c(-c3ccccn3)nc(=O)c12` [drawing 2590], with 25 to 50%.

The experiment is the same for the next values; noted with them: at 20 μM; read-out: KRas G12D Q61H % Inh.
Take `Cc1cc2nc(-c3ccccn3)nc(O)c2s1` [drawing 3791]: the inhibition at 20 µM is 51 to 75%.

Staying with this experiment, now noted: read-out: KRas G12D Q61H IC50.
Regarding `COc1ccc(COCC(=O)N2CCCc3c(O)nc(-c4ccccn4)nc32)cc1` [drawing 2639], the pIC50 was greater than 5.30.
